Assay results: patent US20030166554A1, “Treatment of CNS disorders using D-amino acid oxidase and D-aspartate oxidase antagonists” (GENSET, S.A., priority 2001, published 2003)

Key:
[1] = tested on: PCP-induced hyperactivity in male Swiss mice; assay: Locomotor hyperactivity induced by PCP in mice (open field); type: in vivo; conditions: 30 minute open field, mean +/- s.e.m.
Method: Randomized groups of 10 male Swiss mice (9 weeks old, Elevage Janvier; Le Genest-St-Isle, France) were used for each study.
Mice were group-housed and maintained in an incubator with controlled temperature (21-22° C.) and a reversed light-dark cycle (12 h/12 h) with food and water available ad libitum. All experiments were carried out in accordance with institutional guidelines.
It is well known to those skilled in the art that phencyclidine (PCP) intoxication in mice closely mimics schizophrenia and therefore is commonly used as an animal model of schizophrenia. In the following experiments, the ability of the DAO inhibitor, sodium benzoate, to reverse PCP-induced hyperactivity was monitored. PCP and the test compound, sodium benzoate, were diluted in a 0.9% sterile aqueous solution of sodium chloride (1 mg/ml). Sodium benzoate was administered by intraperitoneal injection (IP) 2 hours before administration of PCP (0.3 mg/kg by subcutaneous (SC) injection 15 minutes before start of the test). The animals were placed into an open field, which was divided into nine equal squares. A video track (Viewpoint system) was placed over a Plexiglas open field (OF; length 52 cm×52 cm; height 40 cm) and animal activity was recorded. Over a 30 minute time period, two parameters were recorded: (a) number of crossed squares and (b) total distance walked.
A global analysis of the data was performed using a one way ANOVA followed by a Dunnett's test if possible. The level of significance was set at p<0.05. Results were expressed was mean +/− standard error of the mean (s.e.m.).

Pig kidney DAAO = target: T1, Pig kidney DAAO (Sus scrofa, UniProt P00371); assay: DAAO kinetics in the presence of g34872 protein (D-serine substrate); type: biochemical; conditions: 20° C.
T1 construct: The crude preparation of pig kidney DAAO was purchased from Sigma; purchased Sigma; host or cells: pig kidney tissue; purified further in house (Sephadex G-50, DEAE-Sepharose, Ultragel AcA44)
Method: (§1) The assay mixture was typically composed of D-serine (Aldrich) 200 mM, FAD (Sigma) at 0.1 mM, sodium phosphate buffer pH8 at 75 mM, HR-peroxidase (Sigma) 1U/ml. The mixture was air-saturated just before use. o-Dianizidine (Sigma) was added in the mixture. In the typical assay 5 μl of the enzyme (DAAO and mixes) was added to 25 μl of the assay mixture, the incubation was stopped with 50 μl of 20% H2SO4. The activity was observed as absorbance of the peroxidase-oxidized o-Dianizidine at 540 nm. The reactions containing high protein concentrations were centrifuged 15 min at 14000 rpm before absorbance measuring.
Pig kidney DAAO was mixed with g34872 in PBS and incubated 30 min at 20° C. DAAO concentration was 200 ng/μl and g34872 concentration was 2 μg/μl in the protein mixture. The control mixture (without g34872) was composed of 200 ng/μl DAAO and 2 μg/μl BSA. The enzymatic activity of DAAO was measured at 20° C. with D-serine, the substrate concentration used were from 0 to 100 mM, other corposants of the mixture and pH were standard.

hDAAO = target: T2, hDAAO (Homo sapiens, UniProt P14920); assay: DAAO activity of combined yeast extracts expressing hDAAO and g34872; type: biochemical; conditions: D-serine, 37° C., FIG. 1
T2 construct: made in house; host or cells: Saccharomyces cerevisiae (YPH499 and FY1679-18B strains), pESC-Leu vector, galactose induction; crude extract
Method: as §1
Yeast cells were transformed with the plasmids constructed in pESC-Leu expression vector. One plasmid can express hDAAO, second one—C-terminal tagged g34872, third—is the vector without insertion (control). After the induction of the expression (2% galactose in the medium) these cells were incubated for 24 h, than the extracts were maid and combined as follow: different volumes of DAAO extract were mixed with either g34872-cHis6 or with the vector extracts. The same volumes of DAAO extracts were also mixed with BSA (external control). After 30min of the pre-incubation the combined extracts were used for DAAO activity measuring. All yeast extracts and BSA solution had the same total protein concentration. DAAO activity was determined with D-serine at 37° C.

HR-peroxidase = assay: Peroxidase control assay (hydrogen peroxide substrate); type: biochemical; conditions: conditions identical to DAAO assay
Source text: The assay of peroxidase was done in the conditions identical to those for DAAO assay; hydrogen peroxide (Gibco) was used as a substrate, and no effect of g34872 on HRP activity was confirmed.

[2] = PCP alone 0.3 mg/kg SC 15 minutes before test
[3] = sodium benzoate 400 mg/kg IP 2 hours before PCP 0.3 mg/kg SC

T1 sequence (P00371 whole entry): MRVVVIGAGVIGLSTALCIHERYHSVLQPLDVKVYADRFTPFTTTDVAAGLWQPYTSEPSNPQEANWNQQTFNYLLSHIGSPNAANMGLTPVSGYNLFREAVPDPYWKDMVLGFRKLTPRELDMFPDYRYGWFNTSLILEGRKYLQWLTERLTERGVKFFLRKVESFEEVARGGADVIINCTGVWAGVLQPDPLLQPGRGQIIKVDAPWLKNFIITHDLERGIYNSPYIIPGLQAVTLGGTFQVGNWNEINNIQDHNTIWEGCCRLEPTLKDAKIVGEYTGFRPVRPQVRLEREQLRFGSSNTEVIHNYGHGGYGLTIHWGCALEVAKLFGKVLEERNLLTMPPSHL
T2 sequence (P14920 whole entry): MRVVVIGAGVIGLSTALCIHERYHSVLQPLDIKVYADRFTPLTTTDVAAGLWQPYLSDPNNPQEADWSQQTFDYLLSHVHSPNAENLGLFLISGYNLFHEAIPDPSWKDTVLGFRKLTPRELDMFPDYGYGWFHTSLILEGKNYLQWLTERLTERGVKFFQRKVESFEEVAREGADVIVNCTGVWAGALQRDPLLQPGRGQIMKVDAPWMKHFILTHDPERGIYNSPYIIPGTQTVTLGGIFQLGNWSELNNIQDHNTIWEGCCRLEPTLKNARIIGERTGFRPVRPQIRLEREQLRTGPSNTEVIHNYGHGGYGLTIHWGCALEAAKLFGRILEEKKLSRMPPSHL

In the case of `c1ccc(C2(N3CCCCC3)CCCCC2)cc1` [PCP, phencyclidine], the “number of crossed squares” value [1, 2] is reported as 977.0+/−64.6 and the total distance walked [1, 2] is reported as 18781.8+/−1447.5.

For `O=C([O-])c1ccccc1.[Na+]` [sodium benzoate], the total distance walked ([1]; sodium benzoate 125 mg/kg IP 2 hours before PCP 0.3 mg/kg SC) was 14807.7+/−756.8, the “number of crossed squares” value [1, 3] was 740.1+/−114.1 and the total distance walked [1, 3] was 13521.0+/−1705.6.

B1: g34872: purified recombinant g34872 protein, binding partner and activator of DAO (protein)
chain: HEDGYLEMAQRHLQRSLCPWVSYLPQPYAELEEVSSHVGKVFMARNYEFLAYEASKDRRQPLERMWTCNYNQQKDQSCNHKEITSTKAE
B1 was tested, and the Km (Pig kidney DAAO; g34872&DAAO mix: DAAO 200 ng/μl, g34872 2 μg/μl, D-serine 0 to 100 mM) was 4 mM, the “effect of g34872 on DAAO (mode of action)” value (Pig kidney DAAO; pig kidney DAAO, D-serine) was “Allosteric Activator” and the “effect on DAO activity” value (hDAAO) was “activates DAO”. For the same molecule, the “effect on HRP activity” value (HR-peroxidase) was “no effect”.
